# Source: patent US20250122253A1, “REGULATING MICROTUBULE DYNAMICS AS A THERAPEUTIC TARGET FOR NERVE REPAIR” (City University of Hong Kong, priority 2023, published 2025)
# Columns and labels:
# tubulin = conditions: epothilone B: cultured rat cortical neurons; cited from earlier work
# spinal neurons = conditions: background statement; paclitaxel in rats; cited from earlier work
# [1] = chronic exposure, high doses in animals; cited from earlier work
# [2] = tested on: regenerating sensory axons of the injured sciatic nerve; experiment: Sciatic nerve pinch test after sciatic nerve crush injury; type: in vivo, mice; conditions: AAV2/9-Fmn2-shRNA mice; 3 days after sciatic nerve injury; LMK-235 20 mg/kg intraperitoneally 3 consecutive days
# Method: Sciatic nerve crush or transection injury was performed in anesthetized adult male C57BL/6 or Fmn2^−/− mice (8-12 weeks old) as previously described. Briefly, the left sciatic nerve was exposed at mid-thigh level. For crush injury, the exposed nerve was crushed with smooth forceps (Dumont #5/45 Forceps, Fine Science Tools) at the sciatic notch for 15 seconds. For sciatic nerve transection, an epineural suture was first made at the level of external rotator muscle, just distal to the sciatic notch. The exposed nerve was then transected using a pair of ophthalmic microscissors just distal to the suture. After injury, the overlying muscle and skin were sutured using a 5-0 suture (Ethilon), and the mice were allowed to recover on a heated pad, and returned to their home cages after recovery. The surgeon was blinded to the genotypes and treatments.
# For in vivo gene silencing of Fmn2 and/or Hdac5 in DRGs, AAV2/9-Fmn2-shRNA and AAV2/9-Hdac5-shRNA at a titer of 5×10^12 vg/mL (OBIO Technology) were injected into the sciatic nerve directly through a glass micropipette using a microinjector (Harvard Apparatus) two weeks before sciatic nerve crush injury. The mice were then subjected to sciatic nerve crush injury and sciatic nerve pinch test (FIG. 4) and animal behavioural assessment (FIG. 15). The expression of shRNAs was under the control of the U6 promoter, and the expression of the reporter gene eGFP was under the control of the CAG promoter. AAV2/9-scr-shRNA (Packgene) was used as a negative control (see FIG. 22 for the shRNA sequences). On a separate batch of animals, the knockdown efficiency in DRGs was assessed by Western blot analysis in AAV2-Fmn2-shRNA and AAV2-Hdac5-shRNA mice two weeks after the AAV injection (FIGS. S8B and S9). […]
# Sciatic nerve pinch test was performed in the ipsilateral side 3 days after sciatic nerve crush injury. […] The distance (in mm) representing the length of axonal regrowth was recorded from the crushed site to the most distal point of sciatic nerve whereas initial withdrawal reflex was observed after pinching. […]
# pHDAC5 = experiment: Western blot of pHDAC5 in sciatic nerve segments 0-6 mm distal to the crush site; type: in vivo, mice; conditions: AAV2/9-Fmn2-shRNA mice; 3 days after injury
# Method: (§1) Ipsilateral L4/5 DRG neurons were harvested at various time points following sciatic nerve injury as indicated. Sciatic nerves were harvested 3 days after crush injury and segmented into 0-6 mm distal to the crush site. Each protein sample was pooled from 3 mice. DRG neurons and segmented sciatic nerves were mechanically dissociated with protein lysis buffer, and subjected to measurement of protein concentration using protein BCA assay (Pierce). Protein lysate (30 μg) was separated on 4-12% NuPAGE Tris-Glycine precast gel (Invitrogen). Protein was then transferred onto a PVDF membrane (Bio-Rad) and blocked with 5% non-fat milk (Bio-Rad) in TBS-T. The membrane was incubated with anti-FMN2 (1:500; ProteinTech), anti-phosphorylated HDAC5 (1:500, ThermoFisher), anti-HDAC5 (1:500, Novus Biologicals), anti-acetylated tubulin (1:10,000; Sigma-Aldrich), anti-NeuN (1:500; Millipore), anti-SOX10 (1:500; Abcam), anti-IBA-1 (1:1,000; Wako), anti-GFP (1:1,000; Cell Signaling), and anti-GAPDH antibodies (1:2,000; ProteinTech) as loading controls. The membrane was incubated with secondary antibody conjugated with horseradish peroxidase (1:2,000; Thermo-Fisher). Signals were detected using West Femto Maximum Sensitivity Substrate Kit (Thermo Scientific). […] Band intensities were measured using Image Lab software (Bio-Rad). […]
# acetylated tubulin = experiment: Western blot of acetylated tubulin/total tubulin in sciatic nerve segments 0-6 mm distal to the crush site; type: in vivo, mice; conditions: AAV2/9-Fmn2-shRNA mice; 3 days after injury
# Method: as §1
# damaged axons = conditions: background statement; cited from earlier work
smiles,measurement,setting,value
C/C(=C\c1csc(C)n1)[C@@H]1C[C@@H]2O[C@]2(C)CCC[C@H](C)[C@H](O)[C@@H](C)C(=O)C(C)(C)[C@@H](O)CC(=O)O1 [Epothilone B],tubulin polymerization at growing tips / growth cones,tubulin,induced rapid tubulin polymerization
same,axon regeneration after spinal cord injury,spinal neurons,promoted in vivo axon regeneration
same,peripheral neuropathy,[1],cause chemotherapy-induced peripheral neuropathy
Cc1cc(C)cc(C(=O)NOCCCCCC(=O)NO)c1 [LMK-235],effect on the axon regrowth-promoting effect in AAV2/9-Fmn2-shRNA mice,[2],completely eliminated the axon regrowth-promoting effect
same,reduction of pHDAC5 protein expression in AAV2/9-Fmn2-shRNA mice,pHDAC5,70%
same,acetylated tubulin expression in sciatic nerves of AAV2/9-Fmn2-shRNA mice,acetylated tubulin,increased acetylated tubulin expression
CC(=O)O[C@H]1C(=O)[C@@]2(C)[C@H]([C@H](OC(=O)c3ccccc3)[C@]3(O)C[C@H](OC(=O)[C@H](O)[C@@H](NC(=O)c4ccccc4)c4ccccc4)C(C)=C1C3(C)C)[C@]1(OC(C)=O)CO[C@@H]1C[C@@H]2O [paclitaxel],tubulin polymerization at growing tips / growth cones,tubulin,induced active tubulin polymerization
same,axon regeneration after spinal cord injury,spinal neurons,facilitated in vivo axon regeneration
O=C(CCCCCN1C(=O)c2cccc3cccc(c23)C1=O)NO [scriptaid],axonal regrowth after PNI,damaged axons,markedly stalled axonal regrowth
